Bounds are passed on as bounds.

In test [1] the target is Sodium channel protein type 5 subunit alpha (Homo sapiens, UniProt Q14524). It is filed as functional, cell-based.
For test [2], the target named is T1, Peroxisome proliferator-activated receptor gamma (Homo sapiens, UniProt P37231).
T1 sequence (P37231 whole entry): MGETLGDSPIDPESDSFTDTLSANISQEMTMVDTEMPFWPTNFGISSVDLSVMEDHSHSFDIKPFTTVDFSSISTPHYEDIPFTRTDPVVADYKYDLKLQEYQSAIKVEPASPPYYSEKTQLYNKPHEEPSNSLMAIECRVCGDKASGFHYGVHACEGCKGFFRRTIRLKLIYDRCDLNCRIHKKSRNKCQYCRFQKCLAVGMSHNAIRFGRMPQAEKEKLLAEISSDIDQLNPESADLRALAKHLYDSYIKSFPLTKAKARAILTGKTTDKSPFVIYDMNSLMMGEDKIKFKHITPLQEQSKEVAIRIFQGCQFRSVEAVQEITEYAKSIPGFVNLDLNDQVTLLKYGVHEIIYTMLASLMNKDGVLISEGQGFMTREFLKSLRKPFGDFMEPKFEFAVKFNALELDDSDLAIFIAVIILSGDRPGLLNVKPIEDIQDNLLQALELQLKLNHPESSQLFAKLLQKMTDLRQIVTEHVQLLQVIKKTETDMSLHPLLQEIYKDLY
The format is functional.

Test [3] deals with T2, Estrogen receptor (Homo sapiens, UniProt P03372).
T2 sequence (P03372 whole entry): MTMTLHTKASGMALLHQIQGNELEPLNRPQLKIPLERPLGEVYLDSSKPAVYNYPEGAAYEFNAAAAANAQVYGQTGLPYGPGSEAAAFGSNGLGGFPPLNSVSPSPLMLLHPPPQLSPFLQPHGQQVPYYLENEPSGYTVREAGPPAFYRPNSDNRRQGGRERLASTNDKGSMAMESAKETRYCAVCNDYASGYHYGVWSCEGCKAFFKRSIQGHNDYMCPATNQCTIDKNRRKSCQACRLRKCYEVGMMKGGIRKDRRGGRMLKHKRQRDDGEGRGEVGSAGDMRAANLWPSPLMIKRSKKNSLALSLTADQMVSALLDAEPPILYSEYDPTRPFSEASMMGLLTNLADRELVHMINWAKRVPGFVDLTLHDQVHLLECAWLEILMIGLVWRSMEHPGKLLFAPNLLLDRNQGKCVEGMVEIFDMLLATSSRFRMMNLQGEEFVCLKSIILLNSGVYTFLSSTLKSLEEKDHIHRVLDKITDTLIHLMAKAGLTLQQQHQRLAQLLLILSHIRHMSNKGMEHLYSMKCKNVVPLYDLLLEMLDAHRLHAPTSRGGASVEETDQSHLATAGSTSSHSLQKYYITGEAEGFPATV
It is filed as functional.

The target of test [4] is T3, D(4) dopamine receptor (Homo sapiens, UniProt P21917).
T3 sequence (P21917 whole entry): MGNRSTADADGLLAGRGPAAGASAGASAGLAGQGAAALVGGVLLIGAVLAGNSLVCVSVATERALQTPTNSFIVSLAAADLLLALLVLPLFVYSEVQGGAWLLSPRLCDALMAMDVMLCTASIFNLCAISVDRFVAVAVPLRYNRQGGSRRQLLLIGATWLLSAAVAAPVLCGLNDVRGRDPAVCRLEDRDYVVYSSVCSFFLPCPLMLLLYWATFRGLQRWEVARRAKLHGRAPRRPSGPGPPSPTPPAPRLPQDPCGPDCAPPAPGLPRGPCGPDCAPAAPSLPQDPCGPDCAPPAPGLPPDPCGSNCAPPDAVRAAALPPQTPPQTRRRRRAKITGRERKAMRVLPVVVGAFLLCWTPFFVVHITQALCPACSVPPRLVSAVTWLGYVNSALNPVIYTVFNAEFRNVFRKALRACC

Test [5] addresses 5-hydroxytryptamine receptor 2B (Homo sapiens, UniProt P41595).
Test [6] has as its target D(1A) dopamine receptor (Homo sapiens, UniProt P21728).
The target of test [7] is Substance-P receptor (Homo sapiens, UniProt P25103).
Substance-P receptor, sequence (P25103 whole entry): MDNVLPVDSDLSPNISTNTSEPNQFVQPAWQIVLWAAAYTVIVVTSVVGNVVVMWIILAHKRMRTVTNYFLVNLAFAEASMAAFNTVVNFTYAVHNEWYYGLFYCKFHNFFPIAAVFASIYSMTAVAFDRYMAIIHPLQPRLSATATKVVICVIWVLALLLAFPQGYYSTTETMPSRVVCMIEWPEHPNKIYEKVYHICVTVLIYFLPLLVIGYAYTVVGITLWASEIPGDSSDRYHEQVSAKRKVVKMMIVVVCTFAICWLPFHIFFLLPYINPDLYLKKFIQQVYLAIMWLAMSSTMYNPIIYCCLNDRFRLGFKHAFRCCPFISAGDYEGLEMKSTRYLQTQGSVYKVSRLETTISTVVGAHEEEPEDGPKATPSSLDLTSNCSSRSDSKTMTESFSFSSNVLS
Further: assay procedure not described here.

D(1A) dopamine receptor, sequence (P21728 whole entry): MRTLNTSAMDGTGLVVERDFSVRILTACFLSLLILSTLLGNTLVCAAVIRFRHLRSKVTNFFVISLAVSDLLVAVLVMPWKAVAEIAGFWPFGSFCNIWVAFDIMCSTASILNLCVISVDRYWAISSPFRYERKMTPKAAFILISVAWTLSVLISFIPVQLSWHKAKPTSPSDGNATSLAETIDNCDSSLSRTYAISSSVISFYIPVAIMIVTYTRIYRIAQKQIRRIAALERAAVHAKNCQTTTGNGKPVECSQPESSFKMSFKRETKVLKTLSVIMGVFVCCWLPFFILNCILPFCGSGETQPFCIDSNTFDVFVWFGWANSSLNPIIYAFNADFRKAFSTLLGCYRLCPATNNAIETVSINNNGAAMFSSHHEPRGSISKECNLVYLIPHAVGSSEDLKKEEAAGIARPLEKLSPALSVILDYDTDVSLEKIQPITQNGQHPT
5-hydroxytryptamine receptor 2B, sequence (P41595 whole entry): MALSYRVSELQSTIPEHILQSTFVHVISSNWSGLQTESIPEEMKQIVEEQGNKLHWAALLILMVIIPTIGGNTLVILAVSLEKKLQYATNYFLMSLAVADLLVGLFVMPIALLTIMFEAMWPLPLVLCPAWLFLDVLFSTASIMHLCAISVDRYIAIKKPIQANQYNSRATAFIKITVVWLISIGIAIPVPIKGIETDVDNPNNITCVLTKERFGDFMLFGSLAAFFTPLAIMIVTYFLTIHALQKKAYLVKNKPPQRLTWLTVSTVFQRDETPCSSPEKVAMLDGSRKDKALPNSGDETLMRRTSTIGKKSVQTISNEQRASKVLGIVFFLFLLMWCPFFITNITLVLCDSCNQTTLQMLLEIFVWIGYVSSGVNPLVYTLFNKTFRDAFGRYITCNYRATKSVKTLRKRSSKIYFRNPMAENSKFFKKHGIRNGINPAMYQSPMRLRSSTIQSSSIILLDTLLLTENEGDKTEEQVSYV
Sodium channel protein type 5 subunit alpha, sequence (Q14524 whole entry): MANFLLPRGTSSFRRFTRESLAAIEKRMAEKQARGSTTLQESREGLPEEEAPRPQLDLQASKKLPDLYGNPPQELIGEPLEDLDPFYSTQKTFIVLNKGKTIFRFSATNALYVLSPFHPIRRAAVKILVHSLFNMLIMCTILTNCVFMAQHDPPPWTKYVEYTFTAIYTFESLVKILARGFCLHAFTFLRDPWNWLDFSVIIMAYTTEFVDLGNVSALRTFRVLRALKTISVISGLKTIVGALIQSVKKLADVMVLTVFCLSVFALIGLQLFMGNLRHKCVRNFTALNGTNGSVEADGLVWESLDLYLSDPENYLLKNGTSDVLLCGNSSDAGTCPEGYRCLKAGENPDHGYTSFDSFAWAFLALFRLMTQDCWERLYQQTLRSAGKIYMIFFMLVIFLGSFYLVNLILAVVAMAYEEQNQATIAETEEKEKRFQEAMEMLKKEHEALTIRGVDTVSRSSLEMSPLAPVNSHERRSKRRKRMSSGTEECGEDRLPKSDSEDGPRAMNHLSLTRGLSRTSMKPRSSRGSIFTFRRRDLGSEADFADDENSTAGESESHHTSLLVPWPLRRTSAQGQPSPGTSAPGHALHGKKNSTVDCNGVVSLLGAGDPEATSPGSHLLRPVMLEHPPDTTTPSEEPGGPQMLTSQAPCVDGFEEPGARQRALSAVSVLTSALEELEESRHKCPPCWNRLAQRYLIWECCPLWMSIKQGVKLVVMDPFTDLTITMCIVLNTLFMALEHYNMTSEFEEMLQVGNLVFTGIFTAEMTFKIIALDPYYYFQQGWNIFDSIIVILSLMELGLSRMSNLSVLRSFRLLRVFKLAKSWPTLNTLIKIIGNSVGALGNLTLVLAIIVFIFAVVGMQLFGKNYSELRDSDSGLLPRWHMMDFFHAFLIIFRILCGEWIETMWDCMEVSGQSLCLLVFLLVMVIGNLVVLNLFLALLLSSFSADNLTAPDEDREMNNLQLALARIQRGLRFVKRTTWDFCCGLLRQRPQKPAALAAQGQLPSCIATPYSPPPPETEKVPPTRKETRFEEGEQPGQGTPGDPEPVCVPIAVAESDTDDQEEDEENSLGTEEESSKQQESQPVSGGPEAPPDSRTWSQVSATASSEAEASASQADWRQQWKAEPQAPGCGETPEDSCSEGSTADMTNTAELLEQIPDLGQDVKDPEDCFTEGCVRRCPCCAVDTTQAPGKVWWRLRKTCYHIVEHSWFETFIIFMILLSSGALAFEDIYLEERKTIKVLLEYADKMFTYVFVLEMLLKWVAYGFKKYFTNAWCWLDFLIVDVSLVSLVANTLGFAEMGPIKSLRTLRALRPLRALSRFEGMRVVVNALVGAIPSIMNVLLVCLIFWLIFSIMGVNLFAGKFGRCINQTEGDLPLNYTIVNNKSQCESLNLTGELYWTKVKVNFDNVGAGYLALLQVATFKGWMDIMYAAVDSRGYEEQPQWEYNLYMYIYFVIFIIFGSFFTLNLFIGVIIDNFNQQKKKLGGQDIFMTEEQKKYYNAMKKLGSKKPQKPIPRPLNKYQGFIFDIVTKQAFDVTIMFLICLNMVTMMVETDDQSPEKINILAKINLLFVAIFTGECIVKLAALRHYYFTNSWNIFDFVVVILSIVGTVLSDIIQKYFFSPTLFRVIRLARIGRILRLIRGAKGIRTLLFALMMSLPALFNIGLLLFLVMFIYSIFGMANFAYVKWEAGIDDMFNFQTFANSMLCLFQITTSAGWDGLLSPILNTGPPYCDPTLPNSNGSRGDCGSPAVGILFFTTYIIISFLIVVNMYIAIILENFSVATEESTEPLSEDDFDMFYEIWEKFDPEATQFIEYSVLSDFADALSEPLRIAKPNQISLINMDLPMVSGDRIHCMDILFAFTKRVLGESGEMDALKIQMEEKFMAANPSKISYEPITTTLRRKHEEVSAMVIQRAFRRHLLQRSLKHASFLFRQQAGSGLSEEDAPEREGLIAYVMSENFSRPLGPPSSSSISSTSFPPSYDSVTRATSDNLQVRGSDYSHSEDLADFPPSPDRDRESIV

In the case of `O=C(O)c1ccccc1` [BENZOIC ACID], the half-maximal activity concentration (AC50) (commonly the concentration giving half of the maximal activity seen) in test [1] is above 50 µM.

The compound `CC1(C)S[C@@H]2[C@H](NC(=O)C(C(=O)O)c3ccccc3)C(=O)N2[C@H]1C(=O)O` (some centres not stated) [CARBENICILLIN] registered an AC50 in test [2] above 30 µM.

As for `CCC(=O)O[C@]1(C(=O)CCl)[C@@H](C)C[C@H]2[C@@H]3CCC4=CC(=O)C=C[C@]4(C)[C@@]3(F)[C@@H](O)C[C@@]21C` [CLOBETASOL PROPIONATE], the AC50 was above 30 µM in test [3] and 18 µM in test [2].

In the case of `Cc1nc(Nc2ncc(C(=O)Nc3c(C)cccc3Cl)s2)cc(N2CCN(CCO)CC2)n1` [DASATINIB], the concentration at half-maximal activity (AC50) in test [4] is above 10 µM; in test [5] it was 7.6 µM; in test [6] it was above 10 µM.

For the compound `O=C(O)Cc1ccccc1Nc1c(Cl)cccc1Cl` [DICLOFENAC], the half-maximal activity concentration (AC50) in test [4] is above 10 µM; in test [5], above 10 µM; in test [1], above 30 µM; in test [7] it was above 10 µM; in test [6], above 10 µM.

As to `CNC[C@H](O)c1ccc(O)c(O)c1` [EPINEPHRINE], the AC50 in test [3] and in test [2] was above 30 µM throughout.

Regarding `O=C(O)Cc1ccccc1Oc1ccc(Cl)cc1Cl` [FENCLOFENAC], the AC50 in test [4], in test [5], in test [7] and in test [6] was above 10 µM throughout.

As to `Cc1ccc(C)c(OCCCC(C)(C)C(=O)O)c1` [GEMFIBROZIL], the half-maximal activity concentration (AC50) in test [4], in test [5], in test [7] and in test [6] was above 10 µM throughout.

For `CCCCCCCN(CC)CCCC(O)c1ccc(NS(C)(=O)=O)cc1` (configuration not stated) [IBUTILIDE], in test [1], the AC50 is above 30 µM.

With `CC[C@H](C)C(=O)O[C@H]1C[C@@H](C)C=C2C=C[C@H](C)[C@H](CC[C@@H]3C[C@@H](O)CC(=O)O3)[C@H]21` [LOVASTATIN], the AC50 was above 10 µM in test [4]; above 10 µM in test [5]; above 30 µM in test [1]; above 10 µM in test [7]; above 10 µM in test [6].

`CC(CN1c2ccccc2Sc2ccccc21)N(C)C` (configuration not stated) [PROMETHAZINE]: the figures for the AC50 in test [5], in test [7] and in test [6] were 0.0679 µM, above 10 µM and 3.38 µM, respectively.

On to `CN(CCOc1ccc(CC2SC(=O)NC2=O)cc1)c1ccccn1` (configuration not stated) [ROSIGLITAZONE], for which the AC50 in test [4] was above 10 µM; in test [5], above 10 µM; in test [1] it was above 30 µM; in test [7], above 10 µM; in test [6], above 10 µM.

As to `CC(C)[C@H](N)C(=O)OCCOCn1cnc2c(=O)[nH]c(N)nc21` [VALACYCLOVIR], the half-maximal activity concentration (AC50) in test [4], in test [5], in test [7] and in test [6] was above 10 µM throughout.

Consider `O=C1Cc2cc(CCN3CCN(c4nsc5ccccc45)CC3)c(Cl)cc2N1` [ZIPRASIDONE], for which the AC50 in test [5] was 0.0137 µM; in test [1], above 50 µM.
